In one assay the test system is P388 leukemia cells. The experiment in a line: DNA synthesis in P388 leukemia cells in vivo. On the set-up: species or system mice. The following applies: 80 mg/kg, for 7 hours after treatment. How it is done:
(§1) Relative to activity against leukemia and antiviral activity, the following summation was found: Levels of F-AraATP in acid-soluble extracts prepared from L1210 and P388 leukemia cells in mice treated with 2-F-AraA (80 mg/kg) were determined by HPLC. […] Inhibition of DNA synthesis by 2-F-AraA (80 mg/kg) in L1210 and P388 leukemia cells in vivo was pronounced for 7 hours after treatment. […] 2-F-AraA was effective against P388 leukemia; % increase in median life span of mice treated with 80 and 52 mg/kg (q3hrsx8; days 1,5,9 after implant of 10^6 cells) was 170% and 150%.

A further assay deals with P388 leukemia. Description: Therapeutic activity against P388 leukemia in mice. The following applies: for % increase in median life span: days 1,5,9 after implant of 10^6 cells. Format: in vivo. How it is done: as §1

Entries after “also recorded” stand apart in the source; their conditions may differ.

The results in this text go back to patent US4188378A, “Anticancer and antiviral activity of 9-β-D-arabinofuranosyl-2-fluoroadenine” (The United States of America as represented by the …, priority 1978, dated 1980).

For `Nc1nc(F)nc2c1ncn2[C@@H]1O[C@H](CO)[C@@H](O)[C@@H]1O` [2-F-AraA, 9-β-D-arabinofuranosyl-2-fluoroadenine], in the assay with P388 leukemia cells, the “inhibition of DNA synthesis in vivo” value is “pronounced”. In addition, the entries for the “% increase in median life span” value with P388 leukemia (52 mg/kg q3hrsx8) and in the assay on P388 leukemia (80 mg/kg q3hrsx8) were 150% and 170%, respectively. In addition, the “activity against P388 leukemia in mice” value in the assay with P388 leukemia (mouse, in vivo) was “effective; also recorded: active”.
